Like-named read-outs stand apart in the source and are kept apart here.
Tests used:
ABL1 = ABL1 (Homo sapiens (Human), UniProt P00519); assay: Caliper Mobility Shift kinase inhibition test; assay type: biochemical; conditions: 100 nM; read-out: inhibitory rate on ABL1
Description: (§1) The method adopted in the test was Caliper Mobility Shift Assay, which was a detection platform based on the mobility detection technology of microfluidic chip technology. […] Collected data was tested on Caliper to yield that inhibition ratio to kinase activity=(max−conversion)/(max−min)×100. “max” was DMSO control without adding compound, and “min” was low control. When IC50 was determined, each sample was provided with 10 dilutions, each with 2 multiple holes, and repeated for 3 times.

PDGFRα = PDGFRα (Homo sapiens (Human), UniProt P16234); assay: Caliper Mobility Shift kinase inhibition test; assay type: biochemical; conditions: for inhibition at 0.1 µM: 100 nM
Chain of PDGFRα (P16234 24-1089): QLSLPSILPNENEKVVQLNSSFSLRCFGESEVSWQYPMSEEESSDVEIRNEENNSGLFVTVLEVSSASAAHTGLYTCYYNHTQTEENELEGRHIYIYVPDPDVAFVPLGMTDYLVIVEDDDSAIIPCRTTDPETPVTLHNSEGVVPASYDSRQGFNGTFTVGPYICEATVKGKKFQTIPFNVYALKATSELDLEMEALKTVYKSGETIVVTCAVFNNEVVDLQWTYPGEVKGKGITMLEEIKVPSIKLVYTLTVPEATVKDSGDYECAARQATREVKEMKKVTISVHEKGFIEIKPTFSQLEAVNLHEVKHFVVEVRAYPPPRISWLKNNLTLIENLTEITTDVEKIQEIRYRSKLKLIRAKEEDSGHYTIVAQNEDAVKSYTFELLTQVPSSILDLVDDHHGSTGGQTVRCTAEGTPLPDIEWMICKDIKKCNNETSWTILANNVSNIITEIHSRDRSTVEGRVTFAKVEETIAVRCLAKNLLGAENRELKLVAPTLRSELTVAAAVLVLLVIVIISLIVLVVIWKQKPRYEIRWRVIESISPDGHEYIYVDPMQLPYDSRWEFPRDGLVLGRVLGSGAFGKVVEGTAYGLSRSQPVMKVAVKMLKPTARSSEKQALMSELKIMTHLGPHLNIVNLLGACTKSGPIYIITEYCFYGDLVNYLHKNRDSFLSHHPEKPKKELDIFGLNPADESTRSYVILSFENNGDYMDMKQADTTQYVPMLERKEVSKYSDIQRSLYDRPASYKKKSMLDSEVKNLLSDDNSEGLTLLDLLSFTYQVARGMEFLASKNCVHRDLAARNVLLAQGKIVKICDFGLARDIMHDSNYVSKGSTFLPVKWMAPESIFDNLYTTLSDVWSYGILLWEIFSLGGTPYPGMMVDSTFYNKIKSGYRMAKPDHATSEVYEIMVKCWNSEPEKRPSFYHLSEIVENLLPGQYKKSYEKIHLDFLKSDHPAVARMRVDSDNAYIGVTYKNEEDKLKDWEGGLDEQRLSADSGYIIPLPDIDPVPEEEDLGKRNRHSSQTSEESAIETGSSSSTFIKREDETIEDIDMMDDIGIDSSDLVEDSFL
Description: as §1

FGFR2 = FGFR2 (Homo sapiens (Human), UniProt P21802); assay: Caliper Mobility Shift kinase inhibition test; assay type: biochemical; conditions: for inhibition at 0.1 µM: 100 nM
Chain of FGFR2 (P21802 22-821, species assumed): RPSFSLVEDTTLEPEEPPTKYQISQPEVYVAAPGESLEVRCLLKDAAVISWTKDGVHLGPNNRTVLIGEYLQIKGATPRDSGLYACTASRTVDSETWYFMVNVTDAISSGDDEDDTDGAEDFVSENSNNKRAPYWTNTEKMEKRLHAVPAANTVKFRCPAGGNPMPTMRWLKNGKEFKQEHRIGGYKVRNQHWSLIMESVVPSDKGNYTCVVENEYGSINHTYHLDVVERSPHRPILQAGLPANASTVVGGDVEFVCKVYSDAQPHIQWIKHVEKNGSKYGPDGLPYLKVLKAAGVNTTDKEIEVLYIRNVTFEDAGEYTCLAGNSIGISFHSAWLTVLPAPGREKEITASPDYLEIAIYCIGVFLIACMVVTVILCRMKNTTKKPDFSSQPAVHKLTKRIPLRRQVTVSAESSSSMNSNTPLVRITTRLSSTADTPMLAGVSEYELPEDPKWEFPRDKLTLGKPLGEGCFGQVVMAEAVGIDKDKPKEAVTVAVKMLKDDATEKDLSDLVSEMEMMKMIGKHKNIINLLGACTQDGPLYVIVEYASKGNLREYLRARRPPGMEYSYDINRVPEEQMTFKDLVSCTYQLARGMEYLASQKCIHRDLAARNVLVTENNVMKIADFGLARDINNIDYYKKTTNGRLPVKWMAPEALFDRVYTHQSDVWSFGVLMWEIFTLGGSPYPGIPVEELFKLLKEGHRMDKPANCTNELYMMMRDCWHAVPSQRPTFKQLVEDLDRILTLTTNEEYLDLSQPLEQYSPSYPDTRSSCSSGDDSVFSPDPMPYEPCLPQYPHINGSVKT
Description: (§2) The method adopted in the test was Caliper Mobility Shift Assay, which was a detection platform based on the mobility detection technology of microfluidic chip technology. Test steps: 1.25× kinase reaction buffer (62.5 mmol/L HEPES, pH 7.5; 0.001875% Brij-35; 12.5 mmol/L MgCl2; 2.5 mM DTT) and kinase reaction stop solution (100 mmol/L HEPES, pH 7.5; 0.015% Brij-35; 0.2% Coating Reagent #3) were configured. […] Collected data was tested on Caliper to yield that inhibition ratio to kinase activity=(max−conversion)/(max−min)×100. “max” was DMSO control without adding compound, and “min” was low control. When IC50 was determined, each sample was provided with 10 dilutions, each with 2 multiple holes, and repeated for 3 times.
(§3) According to the above-mentioned method for measuring kinase inhibitory activity, the inhibitory activity of the active compounds on other multiple kinases was measured to characterize the kinase selectivity of active inhibitors.

JAK1 = JAK1 (Homo sapiens (Human), UniProt P23458); assay: Caliper Mobility Shift kinase inhibition test; assay type: biochemical; conditions: for inhibition at 0.1 µM: 100 nM
Chain of JAK1 (P23458 whole entry, species assumed): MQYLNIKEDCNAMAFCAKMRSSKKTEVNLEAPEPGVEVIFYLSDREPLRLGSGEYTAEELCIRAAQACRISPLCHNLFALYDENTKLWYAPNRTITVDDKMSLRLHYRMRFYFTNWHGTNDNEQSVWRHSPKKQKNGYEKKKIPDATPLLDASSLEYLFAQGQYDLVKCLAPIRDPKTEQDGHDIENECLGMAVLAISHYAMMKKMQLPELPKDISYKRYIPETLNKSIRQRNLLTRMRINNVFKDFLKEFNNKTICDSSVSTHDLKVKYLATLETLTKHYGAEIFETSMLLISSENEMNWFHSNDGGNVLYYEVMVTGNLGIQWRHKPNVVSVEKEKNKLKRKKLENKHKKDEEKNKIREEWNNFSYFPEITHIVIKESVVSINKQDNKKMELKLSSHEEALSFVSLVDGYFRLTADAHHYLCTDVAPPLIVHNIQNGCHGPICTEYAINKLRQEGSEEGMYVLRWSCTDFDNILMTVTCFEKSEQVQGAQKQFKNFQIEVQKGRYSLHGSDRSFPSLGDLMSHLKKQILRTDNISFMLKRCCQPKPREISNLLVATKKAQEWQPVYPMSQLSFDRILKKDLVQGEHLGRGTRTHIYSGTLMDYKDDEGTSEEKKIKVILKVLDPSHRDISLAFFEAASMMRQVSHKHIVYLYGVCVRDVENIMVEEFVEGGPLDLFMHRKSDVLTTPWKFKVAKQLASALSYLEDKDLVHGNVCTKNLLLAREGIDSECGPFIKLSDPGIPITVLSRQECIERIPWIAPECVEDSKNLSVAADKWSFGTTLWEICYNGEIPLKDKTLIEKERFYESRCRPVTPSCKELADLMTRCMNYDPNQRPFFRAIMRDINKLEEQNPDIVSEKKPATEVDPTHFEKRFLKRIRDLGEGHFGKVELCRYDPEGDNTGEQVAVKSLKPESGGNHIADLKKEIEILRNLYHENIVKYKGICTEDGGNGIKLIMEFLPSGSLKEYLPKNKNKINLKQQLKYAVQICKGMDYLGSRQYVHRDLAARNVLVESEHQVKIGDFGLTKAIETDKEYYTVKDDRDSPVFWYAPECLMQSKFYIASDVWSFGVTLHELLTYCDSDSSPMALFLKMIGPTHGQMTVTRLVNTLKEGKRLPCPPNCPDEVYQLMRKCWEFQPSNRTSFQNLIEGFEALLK
Description: as §2, §3

PDGFRβ = PDGFRβ (Homo sapiens (Human), UniProt P09619); assay: Caliper Mobility Shift kinase inhibition test; assay type: biochemical; conditions: for inhibition at 0.1 µM: 100 nM
Chain of PDGFRβ (P09619 33-1106): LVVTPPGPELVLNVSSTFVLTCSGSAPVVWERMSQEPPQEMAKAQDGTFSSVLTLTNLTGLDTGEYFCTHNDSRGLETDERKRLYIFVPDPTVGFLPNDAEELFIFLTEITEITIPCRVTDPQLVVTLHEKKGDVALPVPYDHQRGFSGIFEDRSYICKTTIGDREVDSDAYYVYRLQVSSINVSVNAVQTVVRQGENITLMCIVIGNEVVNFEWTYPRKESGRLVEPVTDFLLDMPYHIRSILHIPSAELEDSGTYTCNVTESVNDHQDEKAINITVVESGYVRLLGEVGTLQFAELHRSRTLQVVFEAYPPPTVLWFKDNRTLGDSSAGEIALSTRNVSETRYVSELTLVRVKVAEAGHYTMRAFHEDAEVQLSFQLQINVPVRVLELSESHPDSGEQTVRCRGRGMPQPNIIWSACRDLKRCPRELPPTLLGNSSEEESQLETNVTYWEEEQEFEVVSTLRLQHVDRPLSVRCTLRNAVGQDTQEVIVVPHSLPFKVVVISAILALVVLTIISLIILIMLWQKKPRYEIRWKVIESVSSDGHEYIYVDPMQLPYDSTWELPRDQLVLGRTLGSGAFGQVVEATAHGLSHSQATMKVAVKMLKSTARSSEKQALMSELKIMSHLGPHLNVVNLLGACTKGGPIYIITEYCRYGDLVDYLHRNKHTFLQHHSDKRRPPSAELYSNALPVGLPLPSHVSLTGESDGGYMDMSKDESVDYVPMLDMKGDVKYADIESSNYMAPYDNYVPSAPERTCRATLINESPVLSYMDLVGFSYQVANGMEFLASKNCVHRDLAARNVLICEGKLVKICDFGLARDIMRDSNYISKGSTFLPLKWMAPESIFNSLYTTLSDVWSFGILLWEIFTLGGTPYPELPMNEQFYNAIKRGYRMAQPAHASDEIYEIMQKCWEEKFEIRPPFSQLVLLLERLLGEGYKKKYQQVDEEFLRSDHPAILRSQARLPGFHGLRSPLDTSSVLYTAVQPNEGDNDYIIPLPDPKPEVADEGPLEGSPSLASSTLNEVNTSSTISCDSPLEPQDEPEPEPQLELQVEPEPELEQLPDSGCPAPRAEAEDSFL
Description: as §2, §3

ALK = ALK (Homo sapiens (Human), UniProt Q9UM73); assay: Caliper Mobility Shift kinase inhibition test; assay type: biochemical
Description: as §2

FLT3 = FLT3 (Homo sapiens (Human), UniProt P36888); assay: Caliper Mobility Shift kinase inhibition test; assay type: biochemical; conditions: 100 nM; read-out: inhibitory rate on FLT3
Chain of FLT3 (P36888 27-993): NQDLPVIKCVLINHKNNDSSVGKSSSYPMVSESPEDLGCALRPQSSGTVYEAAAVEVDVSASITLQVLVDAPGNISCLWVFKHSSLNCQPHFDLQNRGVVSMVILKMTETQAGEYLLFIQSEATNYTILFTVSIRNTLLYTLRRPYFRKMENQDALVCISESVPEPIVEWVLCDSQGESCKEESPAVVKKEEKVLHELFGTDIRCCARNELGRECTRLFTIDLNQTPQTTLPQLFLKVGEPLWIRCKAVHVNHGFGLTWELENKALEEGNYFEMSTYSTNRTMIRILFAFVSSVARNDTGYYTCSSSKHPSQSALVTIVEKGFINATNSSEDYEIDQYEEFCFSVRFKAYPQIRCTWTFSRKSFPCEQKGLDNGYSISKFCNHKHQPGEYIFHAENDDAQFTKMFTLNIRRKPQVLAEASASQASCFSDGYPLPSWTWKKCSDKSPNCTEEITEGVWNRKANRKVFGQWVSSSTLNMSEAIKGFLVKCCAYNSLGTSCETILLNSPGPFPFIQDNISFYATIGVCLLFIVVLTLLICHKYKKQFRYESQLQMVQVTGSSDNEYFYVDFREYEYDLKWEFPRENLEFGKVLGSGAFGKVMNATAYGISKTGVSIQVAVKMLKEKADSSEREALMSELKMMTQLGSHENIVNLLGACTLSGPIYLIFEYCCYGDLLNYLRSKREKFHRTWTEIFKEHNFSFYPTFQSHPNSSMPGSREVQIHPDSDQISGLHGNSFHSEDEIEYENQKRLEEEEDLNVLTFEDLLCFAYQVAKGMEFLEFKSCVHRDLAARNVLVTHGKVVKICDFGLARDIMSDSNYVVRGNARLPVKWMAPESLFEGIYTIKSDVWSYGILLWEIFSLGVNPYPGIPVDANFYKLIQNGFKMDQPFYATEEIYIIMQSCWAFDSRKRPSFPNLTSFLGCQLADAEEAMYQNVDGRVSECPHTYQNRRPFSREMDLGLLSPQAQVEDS
Description: as §2

IKK β = IKK β (Homo sapiens (Human), UniProt O14920); assay: Caliper Mobility Shift kinase inhibition test; assay type: biochemical
Description: as §2

[1] = tested on: human normal retinal cells ARPE-19; assay: MTT assay on human retinal cells; assay type: cell-based
[2] = tested on: human brain microvascular endothelial cells (HCMEC/D3); assay: MTT assay on human neovascular cells; assay type: cell-based
osteosarcoma cells MG63 [3] = assay: Adhesion test of osteosarcoma cells on fibronectin; assay type: cell-based; conditions: 0.1, 0.2 and 0.4 uM, 48 hours, compared with positive drugs
Description: (§4) Each well was dried, and added with 100 μL of 33% glacial acetic acid and the crystal violet was dissolved by shaking for 10 minutes. The absorbance was measured by a microplate reader at […], and the adhesion rate (%)=(OD value of tumor cells in the drug-added treated group−Hu FN OD value)/(OD value of untreated tumor cells−Hu FN OD value)×100%.

osteosarcoma cells MNNG [4] = assay: Adhesion test of osteosarcoma cells on fibronectin; assay type: cell-based; conditions: 0.1, 0.2 and 0.4 uM, 48 hours, compared with positive drugs
Description: as §4

osteosarcoma cells MG63 [5] = assay: Metastasis (scratch migration) test of osteosarcoma cells; assay type: cell-based; conditions: 0.1, 0.2 and 0.4 uM, compared with positive drugs
Description: (§5) The cells were washed with sterile PBS for three times, and basal medium containing 2.5 μL of TCS was added respectively. Photographs were taken at 0 hour, 24 hours and 48 hours under an inverted microscope, and migration distances were measured with Imag J software.

osteosarcoma cells MNNG [6] = assay: as above; assay type: cell-based; conditions: 0.1, 0.2 and 0.4 uM, compared with positive drugs
Description: as §5

With `CCN1CCN(c2ccc(Nc3ncc(C)c(Nc4ccc5cn[nH]c5c4)n3)cc2OC)CC1` [Compound 6i, N^2-(4-(4-ethylpiperazine-1-yl)-3-methoxyphenyl)-N^4-(1H-indazol-6-yl)-5-methylpyrimidine-2,4-diamine] the inhibition at 0.1 µM (ABL1) was 95.3%, the “inhibitory activity on PDGFRα (in words)” value (PDGFRα) was “significant inhibitory activities” and the inhibition at 0.1 µM (PDGFRα; average, read-out: Average % inhibition PDGFR α) was over 100%. For the same compound, the inhibition at 0.1 µM (PDGFRα; replicate 1, read-out: % inhibition 1 PDGFR α) was 98.9%, the inhibition at 0.1 µM (PDGFRα; replicate 2, read-out: % inhibition 2 PDGFR α) was 103% and the inhibition at 0.1 µM (PDGFRα; read-out: inhibitory rate on PDGFR-α) was 97.5%. It also gave an IC50 (PDGFRα; read-out: IC50 PDGFR-α) of 0.0027 µM, an IC50 (FGFR2) of 0.027 µM and an inhibition at 0.1 µM (FGFR2; average, read-out: Average % inhibition FGFR2) of 83%. The inhibition at 0.1 µM (FGFR2; replicate 1, read-out: % inhibition 1 FGFR2) was 83.8%, the inhibition at 0.1 µM (FGFR2; replicate 2, read-out: % inhibition 2 FGFR2) was 82.1% and the IC50 (JAK1) was 0.0077 µM. It also gave an inhibition at 0.1 µM (JAK1; average, read-out: Average % inhibition JAK1) of 90.5%, an inhibition at 0.1 µM (JAK1; replicate 1, read-out: % inhibition 1 JAK1) of 91.7% and an inhibition at 0.1 µM (JAK1; replicate 2, read-out: % inhibition 2 JAK1) of 89.3%. For the same compound, the “inhibitory activity on PDGFRβ (in words)” value (PDGFRβ) was “significant inhibitory activities”, the inhibition at 0.1 µM (PDGFRβ; average, read-out: Average % inhibition PDGFR β) was over 100% and the inhibition at 0.1 µM (PDGFRβ; replicate 1, read-out: % inhibition 1 PDGFR β) was 101%. The inhibition at 0.1 µM (PDGFRβ; replicate 2, read-out: % inhibition 2 PDGFR β) was 103%, the inhibition at 0.1 µM (PDGFRβ; read-out: inhibitory rate on PDGFR-β) was 99.8% and the IC50 (PDGFRβ; read-out: IC50 PDGFR-β) was 0.0017 µM. The IC50 (ALK) was 0.005 µM, the inhibition at 0.1 µM (FLT3) was 98.9% and the IC50 (IKK β) was 0.694 µM. The IC50 ([1]; Homo sapiens, ARPE-19, MTT, read-out: Inhibitory activity (IC50) ARPE-19) was 17.5 ± 0.37 µM, the “inhibitory activity on ARPE-19 (in words)” value ([1]; at low concentration) was “almost no inhibitory activity” and the IC50 ([2]; Homo sapiens, hCMEC/D3, MTT, read-out: Inhibitory activity (IC50) HCMEC-D3) was 0.23 ± 0.002 µM. For the same compound, the “inhibitory activity on HCMEC/D3 (in words)” value ([2]; compared with multiple positive drugs) was “strong inhibitory activity”, the “inhibitory activity on adhesion” value (osteosarcoma cells MG63 [3]) was “strong dose-dependent inhibitory activity” and the “inhibitory activity on adhesion” value (osteosarcoma cells MNNG [4]) was “strong dose-dependent inhibitory activity”. For the same compound, the “inhibitory activity on metastasis” value (osteosarcoma cells MG63 [5]) was “strong dose-dependent inhibitory activity” and the “inhibitory activity on metastasis” value (osteosarcoma cells MNNG [6]) was “strong dose-dependent inhibitory activity”.
